In patent US20120172351A1, “NOVEL FUSED CYCLIC COMPOUND AND USE THEREOF” (priority 2009, published 2012):

The compounds below were run against T1, human derived GPR40 (Homo sapiens, UniProt O14842) (assay: Agonist action on human derived GPR40: change of intracellular calcium concentration in CHO cells (FLIPRtetra)). Conditions: agonist activity of compound at 1 μM, relative to 10 μM γ linolenic acid as 100%, wave peak height; CHO cells stably expressing human GPR40.
T1 construct: expressed in transfected cells
Format: cell-based
Protocol: The CHO cell lines that stably expressed human derived GPR40 were used for the determination of the agonist activity. Unless particularly specified, the CHO cell lines were cultured in an α-MEM medium (Wako Pure Chemical Industries, Ltd.) containing 10% dialyzed fetal bovine serum (TRA Thermo Electron).
The cells cultured almost to confluent on the day before assay were rinsed with PBS (Invitrogen), detached with 0.5 mM EDTA (Wako Pure Chemical Industries, Ltd.), and recovered by centrifugation. The obtained cells were counted, diluted to 2×10^5 cells per 1 mL medium, dispensed by 40 μL per well to a 384 well black clear bottomplate (PE Biosystems), and cultured overnight in a CO2 incubator. Various test compounds were added to CHO cells prepared as mentioned above, and change of intracellular calcium concentration was measured using FLIPRtetra (Molecular Device). For the measurement by this device, a Calcium 4 assay kit (Molecular Devices: R8142) was used.
First, fatty acid free BSA at the final concentration of 0.1% was added to the buffer attached to the kit to prepare an assay buffer. Using the assay buffer, a loading solution with Fluo4 was prepared such that the final concentration of fatty acid free BSA was 0.1% and the final concentration of probenecid was 625 μM. On the other hand, a test compound was diluted with the assay buffer to a given concentration, and dispensed to the polypropylene 384-well plate (sample plate). The medium was removed from the cell culture plate, and the loading solution with Fluo4 was dispensed by 25 μL. After culture in a CO2 incubator at 37° C. for 40 min, a sample plate and a cell plate were simultaneously set on the FLIPRtetra, various test compounds were added by 25 μL according to the program of the device, and change of intracellular calcium concentration was measured. The agonist activity of each compound at 1 μM was calculated as a relative activity value to the activity of 10 μM γ linolenic acid as 100% from the wave peak height.

T1 sequence (O14842 whole entry): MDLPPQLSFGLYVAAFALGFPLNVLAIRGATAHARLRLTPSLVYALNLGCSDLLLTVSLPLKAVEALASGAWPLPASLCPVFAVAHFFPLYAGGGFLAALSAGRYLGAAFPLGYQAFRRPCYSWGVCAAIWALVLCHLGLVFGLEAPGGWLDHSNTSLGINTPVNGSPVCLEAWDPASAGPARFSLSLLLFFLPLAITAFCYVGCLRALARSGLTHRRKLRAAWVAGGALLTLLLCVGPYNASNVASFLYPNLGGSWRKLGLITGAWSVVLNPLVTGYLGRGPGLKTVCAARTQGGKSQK

Going from `O=C([O-])C[C@@H]1COc2cc(N[C@@H]3COc4c3cccc4N3CCOc4ccccc43)ccc21.[Na+]` [Example 86, sodium [(3S)-6-{[(3S)-7-(2,3-dihydro-4H-1,4-benzooxazin-4-yl)-2,3-dihydro-1-benzofuran-3-yl]amino}-2,3-dihydro-1-benzofuran-3-yl]acetate] to `CCc1nc2ccccc2n1-c1cccc2c1OC[C@H]2Nc1ccc2c(c1)OC[C@H]2CC(=O)[O-].[Na+]` [Example 19, sodium [(3S)-6-{[(3S)-7-(2-ethyl-1H-benzimidazol-1-yl)-2,3-dihydro-1-benzofuran-3-yl]amino}-2,3-dihydro-1-benzofuran-3-yl]acetate], the “activity (%)” value rises from 128% to 129%.

Going from `CCOc1nc2ccc(F)cc2n1-c1cccc2c1OC[C@H]2Nc1ccc2c(c1)OC[C@H]2CC(=O)[O-].[Na+]` [Example 25, sodium [(3S)-6-{[(3S)-7-(2-ethoxy-6-fluoro-1H-benzimidazol-1-yl)-2,3-dihydro-1-benzofuran-3-yl]amino}-2,3-dihydro-1-benzofuran-3-yl]acetate] to `CCOc1nc2ccc(F)cc2n1-c1cccc2c1CCC2Nc1ccc2c(c1)OC[C@H]2CC(=O)[O-].[Na+]` (stereo partly drawn) [Example 227, sodium [(3S)-6-{[4-(2-ethoxy-6-fluoro-1H-benzimidazol-1-yl)-2,3-dihydro-1H-inden-1-yl]amino}-2,3-dihydro-1-benzofuran-3-yl]acetate], the “activity (%)” value falls from 129% to 105%.

Compared with `Cc1nc(N2CCOCC2)nc(C)c1-c1cccc2c1OC[C@H]2Nc1ccc2c(c1)OC[C@H]2CC(=O)O` [Example 77-2, [(3S)-6-({(3S)-7-[4,6-dimethyl-2-(morpholin-4-yl)pyrimidin-5-yl]-2,3-dihydro-1-benzofuran-3-yl}amino)-2,3-dihydro-1-benzofuran-3-yl]acetic acid], `Cc1nc(N2CCOCC2)nc(C)c1-c1cccc(CNc2ccc3c(c2)OC[C@H]3CC(=O)O)c1C` [Example 242, 1,3-dihydroxy-2-(hydroxymethyl)propan-2-aminium [(3S)-6-({3[4,6-dimethyl-2-(morpholin-4-yl)pyrimidin-5-yl]-2-methylbenzyl}amino)-2,3-dihydro-1-benzofuran-3-yl]acetate] is lower in “activity (%)” value: 132% for the first, 121% for the second.

First: Cc1ccc(CNc2ccc3c(c2)OC[C@H]3CC(=O)O)c(C)c1-c1ccc2nc(C(F)(F)F)cn2c1 [Example 219, [(3S)-6-({2,4-dimethyl-3-[2-(trifluoromethyl)imidazo[1,2-a]pyridin-6-yl]benzyl}amino)-2,3-dihydro-1-benzofuran-3-yl]acetic acid]
Second: COc1ccc(-c2c(C(F)(F)F)ccc(CNc3ccc4c(c3)OC[C@H]4CC(=O)O)c2C)cn1 [Example 207, [(3S)-6-{[3-(6-methoxypyridin-3-yl)-2-methyl-4-(trifluoromethyl)benzyl]amino}-2,3-dihydro-1-benzofuran-3-yl]acetic acid]
The “activity (%)” value of the first is higher: 125% for the first, 121% for the second.

Compared with `COc1ccc2c(c1)nc(C1CC1)n2-c1cccc(CNc2ccc3c(c2)OC[C@H]3CC(=O)O)c1C` [Example 149, [(3S)-6-{[3-(2-cyclopropyl-5-methoxy-1H-benzimidazol-1-yl)-2-methylbenzyl]amino}-2,3-dihydro-1-benzofuran-3-yl]acetic acid], `Cc1c(CNc2ccc3c(c2)OC[C@H]3CC(=O)O)cccc1-n1c(C)nc2cc(C(F)(F)F)ccc21` [Example 131, [(3S)-6-({2-methyl-3-[2-methyl-5-(trifluoromethyl)-1H-benzimidazol-1-yl]benzyl}amino)-2,3-dihydro-1-benzofuran-3-yl]acetic acid] is higher in “activity (%)” value: 90% for the first, 129% for the second.

First: CCc1nc2ccc(Cl)cc2n1-c1cccc(CNc2ccc3c(c2)OC[C@H]3CC(=O)[O-])c1C.[Na+] [Example 173, sodium [(3S)-6-{[3-(6-chloro-2-ethyl-1H-benzimidazol-1-yl)-2-methylbenzyl]amino}-2,3-dihydro-1-benzofuran-3-yl]acetate]
Second: Cc1c(CNc2ccc3c(c2)OC[C@H]3CC(=O)O)cccc1-n1c(C)nc2c(C)cccc21 [Example 153, [(3S)-6-{[3-(2,4-dimethyl-1H-benzimidazol-1-yl)-2-methylbenzyl]amino}-2,3-dihydro-1-benzofuran-3-yl]acetic acid]
The “activity (%)” value of the first is higher: 121% for the first, 111% for the second.

Compared with `Cc1oc2ncccc2c1-c1cccc(CNc2ccc3c(c2)OC[C@H]3CC(=O)O)c1C` [Example 223, [(3S)-6-{[2-methyl-3-(2-methylfuro[2,3-b]pyridin-3-yl)benzyl]amino}-2,3-dihydro-1-benzofuran-3-yl]acetic acid], `Cc1oc2cccnc2c1-c1cccc(CNc2ccc3c(c2)OC[C@H]3CC(=O)O)c1C` [Example 221, [(3S)-6-{[2-methyl-3-(2-methylfuro[3,2-b]pyridin-3-yl)benzyl]amino}-2,3-dihydro-1-benzofuran-3-yl]acetic acid] is higher in “activity (%)” value: 111% for the first, 126% for the second.

First: CCCN(c1ccc(F)cn1)c1cccc(CNc2ccc3c(c2)OC[C@H]3CC(=O)O)c1C [Example 232, [(3S)-6-({3-[(5-fluoropyridin-2-yl)(propyl)amino]-2-methylbenzyl}amino)-2,3-dihydro-1-benzofuran-3-yl]acetic acid]
Second: CCOc1nc2c(OCC(F)(F)F)cccc2n1-c1cccc(CNc2ccc3c(c2)OC[C@H]3CC(=O)O)c1C [Example 180, [(3S)-6-({3-[2-ethoxy-4-(2,2,2-trifluoroethoxy)-1H-benzimidazol-1-yl]-2-methylbenzyl}amino)-2,3-dihydro-1-benzofuran-3-yl]acetic acid]
The “activity (%)” value of the first is lower: 121% for the first, 125% for the second.

First: Cc1nn(C(F)F)c(C)c1-c1cccc(CNc2ccc3c(c2)OC[C@H]3CC(=O)O)c1C [Example 109, [(3S)-6-({3-[1-(difluoromethyl)-3,5-dimethyl-1H-pyrazol-4-yl]-2-methylbenzyl}amino)-2,3-dihydro-1-benzofuran-3-yl]acetic acid]
Second: Cc1nc(OC(F)F)nc(C)c1-c1cccc(CNc2ccc3c(c2)OC[C@H]3CC(=O)O)c1C [Example 114, [(3S)-6-({3-[2-(difluoromethoxy)-4,6-dimethylpyrimidin-5-yl]-2-methylbenzyl}amino)-2,3-dihydro-1-benzofuran-3-yl]acetic acid]
The “activity (%)” value of the first is lower: 122% for the first, 132% for the second.

First: Cc1nc2ccccn2c1-c1cccc(CNc2ccc3c(c2)OC[C@H]3CC(=O)O)c1C [Example 201, [(3S)-6-{[2-methyl-3-(2-methylimidazo[1,2-a]pyridin-3-yl)benzyl]amino}-2,3-dihydro-1-benzofuran-3-yl]acetic acid]
Second: Cc1cc(-c2cccc(CNc3ccc4c(c3)OC[C@H]4CC(=O)O)c2F)c(C)s1 [Example 121, [(3S)-6-{[3-(2,5-dimethylthiophen-3-yl)-2-fluorobenzyl]amino}-2,3-dihydro-1-benzofuran-3-yl]acetic acid]
The “activity (%)” value of the first is lower: 124% for the first, 129% for the second.

Compared with `Cc1cc(-c2cccc3c2OC[C@H]3Nc2ccc3c(c2)OC[C@H]3CC(=O)O)c(C)s1` [Example 3, [(3S)-6-{[(3S)-7-(2,5-dimethylthiophen-3-yl)-2,3-dihydro-1-benzofuran-3-yl]amino}-2,3-dihydro-1-benzofuran-3-yl]acetic acid], `Cc1nn(C(F)F)c(C)c1-c1cccc2c1OCC2Nc1ccc2c(c1)OC[C@H]2CC(=O)O` (stereo partly drawn) [Example 67, [(3S)-6-({7-[1-(difluoromethyl)-3,5-dimethyl-1H-pyrazol-4-yl]-2,3-dihydro-1-benzofuran-3-yl}amino)-2,3-dihydro-1-benzofuran-3-yl]acetic acid] is lower in “activity (%)” value: 128% for the first, 111% for the second.

Going from `CCOc1nc2c(F)cc(F)cc2n1-c1cccc2c1OC[C@H]2Nc1ccc2c(c1)OC[C@H]2CC(=O)[O-].[Na+]` [Example 37, sodium [(3S)-6-{[(3S)-7-(2-ethoxy-4,6-difluoro-1H-benzimidazol-1-yl)-2,3-dihydro-1-benzofuran-3-yl]amino}-2,3-dihydro-1-benzofuran-3-yl]acetate] to `CCc1nc2ccc(F)c(F)c2n1-c1cccc2c1OC[C@H]2Nc1ccc2c(c1)OC[C@H]2CC(=O)[O-].[Na+]` [Example 31, sodium [(3S)-6-{[(3S)-7-(2-ethyl-6,7-difluoro-1H-benzimidazol-1-yl)-2,3-dihydro-1-benzofuran-3-yl]amino}-2,3-dihydro-1-benzofuran-3-yl]acetate], the “activity (%)” value rises from 117% to 127%.

Going from `Cc1nc2ccc(OCC(F)(F)F)cc2n1-c1cccc2c1OC[C@H]2Nc1ccc2c(c1)OC[C@H]2CC(=O)[O-].[Na+]` [Example 99, sodium [(3S)-6-({(3S)-7-[2-methyl-6-(2,2,2-trifluoroethoxy)-1H-benzimidazol-1-yl]-2,3-dihydro-1-benzofuran-3-yl}amino)-2,3-dihydro-1-benzofuran-3-yl]acetate] to `CCN(c1ccc(C#N)cc1F)c1cccc2c1OC[C@H]2Nc1ccc2c(c1)OC[C@H]2CC(=O)O` [Example 89, [(3S)-6-({(3S)-7-[(4-cyano-2-fluorophenyl)(ethyl)amino]-2,3-dihydro-1-benzofuran-3-yl}amino)-2,3-dihydro-1-benzofuran-3-yl]acetic acid], the “activity (%)” value rises from 123% to 129%.
